# From the Biogen ADME set (Fang et al. 2023)
# Conditions: for aqueous solubility: pH 6.8
MDR1-MDCK efflux ratio,"fraction unbound, human plasma","fraction unbound, rat plasma","intrinsic clearance, human liver microsomes [mL/min/kg]","intrinsic clearance, rat liver microsomes [mL/min/kg]",aqueous solubility [µg/mL],Compound
114,0.154,0.172,≤ 4.74,26.1,17,[2H]C([2H])([2H])NC(=O)c1nnc(NC(=O)C2CC2)cc1Nc1cccc(-c2ncn(C)n2)c1OC
1.21,–,–,5.04,193,–,Cn1ccnc1-c1noc(NCc2ccccc2)n1
1.12,0.00509,0.00257,768,1520,23.8,Cc1ccc(C(=O)N2CCC(Cc3ccccc3-c3ccccc3)(C(=O)N(C)C)CC2)s1
0.524,–,–,≤ 4.74,≤ 10.7,41.3,N#Cc1cc(F)c(N2CCN(CCO)CC2)c(F)c1
13.4,–,–,17.2,55.8,40.3,N[C@H](Cc1c[nH]c2ccccc12)C(=O)N/N=C/c1ccc2nccnc2c1
1.35,0.0394,0.0393,176,1970,45,COc1ccc([C@H]2CN(C(C)=O)[C@@H]3CCCN(Cc4cccc(F)c4)[C@H]23)cc1
0.309,–,–,411,2980,–,CCOC(=O)c1ccc(N2CCSCC2)nc1
0.563,–,–,185,491,–,CCc1sc(N)nc1-c1ccc(OC)cc1
–,–,–,–,–,7.54,Cc1nnc(NC(C2CC2)C2CC2)c(C#N)c1C
0.904,–,–,–,–,0.25,COc1ccc(-c2nnc3nn(C)c(=O)n3c2-c2ccc(OC)cc2)cc1
0.634,–,–,≤ 4.74,≤ 10.7,41.9,Cc1nc(-c2ccc(Cl)c(Cl)c2)n(CC(C)(C)O)n1
0.524,–,–,56.1,204,52.7,Cc1ccc(OCc2noc(-c3ccsc3)n2)cn1
3.86,–,–,≤ 4.74,≤ 10.7,50.6,CCc1nc2ccccc2n1CC(=O)N1CCNC(=O)C1
22.7,–,–,79.9,449,54.2,Cc1nn(C)c(C)c1CCC(=O)N1CCCc2ncccc21
2.25,–,–,7.54,89.6,44.8,Cn1c(CNC(=O)Cc2ccccc2)nc2ccccc21
2.35,–,–,≤ 4.74,39.6,1.1,O=C(Nc1nc2cc(C(F)(F)F)cc(NC3CC3)n2n1)c1cccnc1
2.6,–,–,6.01,55.5,–,CC(C)n1cnnc1-c1cccc(N2Cc3ccc(Br)cc3C2=O)n1
0.513,–,–,7.49,80.4,11.5,COc1ccc(CNC(=O)c2nnn(-c3ccc(OC)cc3)c2N)cc1
0.229,–,–,267,1390,2.18,CCOC(=S)SCC(=O)Nc1nc(-c2ccc(C3CCCCC3)cc2)cs1
0.552,–,–,≤ 4.74,45.1,–,Cc1ccc(CCNc2ccc(C#N)nc2)cn1
–,–,–,–,–,8.7,COc1cc(C#N)ccc1Oc1nc2ccccc2o1
29,–,–,61.3,1030,54.8,CC1Cc2ccccc2N1C(=O)CN1CCC(n2c(=O)[nH]c3ccccc32)CC1 (configuration not stated)
0.638,–,–,53.8,632,14.7,CCCn1c(=O)n(Cc2ccc(C#N)cc2F)c2ccccc21
4.15,–,–,104,1290,–,CCc1c(C(=O)N2CC[C@@](O)(CC(C)C)[C@@H](Oc3ccc(F)cc3)C2)[nH]c2ccc(C)cc12
51.9,–,–,40.9,680,44.4,NS(=O)(=O)OC[C@@H]1C[C@@H](n2ccc3c(N[C@H]4CCc5ccccc54)ncnc32)C[C@@H]1O
13.1,–,–,105,1440,28.2,Clc1snnc1CN1CCCN(c2nc3ccccc3[nH]2)CC1
0.8,–,–,13,141,30.4,Cc1cccc(C(=O)N(C)CCc2cnccn2)c1
1.47,–,–,264,1960,47,COc1cccc(-c2ccc(C(=O)N(C)Cc3c(C)nn(C(C)C)c3C)o2)c1

# Further lines, the compound ahead of its results:
Compound,MDR1-MDCK efflux ratio,"fraction unbound, human plasma","fraction unbound, rat plasma","intrinsic clearance, human liver microsomes [mL/min/kg]","intrinsic clearance, rat liver microsomes [mL/min/kg]",aqueous solubility [µg/mL]
CCc1cnc(CNC(=O)N2CCC(n3cncn3)CC2)s1,24.7,–,–,≤ 4.74,≤ 10.7,49.4
CCN(C(C)=O)c1ccc(C)cc1C(=O)O,0.864,–,–,≤ 4.74,≤ 10.7,34.9
COc1ccc2nc(NCc3cnn(C)c3)ccc2c1,0.532,–,–,28.5,88.6,34.8
COCCN(Cc1cccs1)Cc1cccc(C)c1O,–,–,–,124,2100,1.05
C=CCc1ccccc1OCC(O)CNC(C)C (configuration not stated),–,–,0.313,–,–,–
O=c1oc2cccnc2n1Cc1cnn(-c2ccccc2)n1,–,–,–,≤ 4.74,63.7,–
O=S(=O)(c1ccccc1Cl)N1CCCc2cnc(N3CCOCC3)nc21,0.697,–,–,–,–,1
CN(C(=O)C1CCN(c2ncccn2)CC1)C1CCCCCCC1,0.85,–,–,519,3890,49.4
O=C(Cc1ccc2c(c1)CCC2)Nc1nc2ccccc2o1,0.499,–,–,113,1540,3.63
O=C(C1CCCN(c2cnccn2)C1)N1CCc2ccccc2C1 (configuration not stated),–,–,–,273,4500,53.2
C#CCNC(=O)N(Cc1ccccc1F)C1CCOCC1,2.15,–,–,≤ 4.74,35.5,–
N=c1ccn2c(n1)O[C@@H]1[C@@H](O)[C@@H](CO)O[C@H]12,–,–,–,≤ 4.74,≤ 10.7,–
CCC(=O)Nc1sc2c(c1C#N)CCC2,–,–,–,156,381,–
C[C@H](C(=O)Nc1nc2ccccc2[nH]1)N1Cc2ccccc2C1=O,–,–,–,≤ 4.74,62.6,26.5
C[C@@H](CN1CCC(n2c(=O)[nH]c3cc(Br)ccc32)CC1)NC(=O)[C@@H]1C[C@H]1c1ccccc1,–,–,–,–,574,–
O=C(CCc1ccco1)Nc1ccccc1OC(F)F,0.533,–,–,116,831,44.6
Cc1ccc(N/N=C2\C(=O)N(C)N=C2Nc2ccccc2Cl)cc1,–,–,–,–,–,0.5
Cc1nc(Nc2nccs2)cc(C2CN(c3ncccn3)C2)n1,1.45,0.0278,0.0237,30.3,74.2,–
O=C1NCCN(C(=O)c2ccncc2)C1c1ccccc1Cl (configuration not stated),4.46,0.753,0.738,≤ 4.74,93.1,44.2
CC(=O)N1CCN(Cc2nc(O)cc(C(F)(F)F)n2)C(C)(C)C1,26.6,–,–,≤ 4.74,≤ 10.7,–
Cc1nc(Cn2nnnc2C(C)(C)C)nc2ccccc12,–,–,–,7.42,724,–
O=C(Nc1nc2ccccc2[nH]1)c1ccncc1,1.24,–,–,≤ 4.74,109,5.09
CC(C)(C)N1CCCN(C(=O)CNc2ccc(C#N)cc2)CC1,0.887,–,–,≤ 4.74,65.3,50
O=c1[nH]c2ccccc2n1C1CCN(Cc2coc(-c3cccs3)n2)CC1,–,–,–,29.4,475,–
CC(C)(C)C(=O)N1CCC(Cc2ccc(-c3cccs3)cc2)(C(=O)N2CCCC2)CC1,0.998,0.00655,0.0102,223,1440,23
CC(C)(C)NC(=O)c1cnc(-c2ccc(Cl)s2)s1,0.494,–,–,41.6,167,1.1
CN(C)S(=O)(=O)Nc1ccc(-n2ncc3ccccc32)cc1,0.562,–,–,21.5,959,38.9
Cc1nc(C(=O)NC2CC2)ccc1C#N,–,–,–,–,–,36.2
